“Also recorded” adds a separate entry of the source. Where two headings read alike, the source gives them in different places.
Tests used:
[1] = test system: C57BL/6 mice; assay: Hair regrowth in DHT-injected depilated mice, topical peptide gel for 14 days; assay type: in vivo, mouse; details: for Numbers of Hair Bulbs/mm deep subcutis / Hair Growth Score: DHT 30 mg/kg s.c. twice per week, gel 25 μM once per day for 14 days; for hair regrowth after depilation (FIG. 7, in words) / increase in total number of hair bulbs versus vehicle or 18-mer: DHT-injected mice; for hair regrowth after depilation (FIG. 7, in words): daily application, day-18 post-depilation; for Hair Growth Score: scale 0 (0%) to 5 (80-100% of shaved area dark)
Experimental: (§1) Before use, the stock containing the 44-mer was prepared into a working dilution, which is then mixed with an antibiotic ointment containing 5 mg/g neomycin sulfate and 12.5 mg/g bacitracin to obtain an antibiotic ointment containing 25 μM of 44-mer. As to other PEDF peptides, 5 μl of 5 mM PEDF peptide stock was gradually dissolved in ethyl alcohol (30% w/w in distilled water), and then 1-oleoyl-rac-glycerol (1% w/w, a skin penetration enhancer) and light mineral oil (1% w/w) were gradually added. The solution was finally gelled by adding hydroxypropyl methylcellulose (5% w/w) to a final volume of 1 ml. A DMSO vehicle corresponding to the peptide formulation was prepared for the purpose of in vivo comparison. FITC-29-mer was also dissolved in the same formulation for applied on top of skin to determining the follicular distribution of FITC-29-mer.
(§2) For topical treatments, 350 mg ointment or gel containing 25 μM of PEDF peptide was spread gently over dorsal skin per mouse.
To evaluate the effect of PEDF peptide on restarting hair growth, C57BL/6 mice were depilated as described in Example 3.2. At day-11 post-depilation, mice (six to ten mice per experimental condition) were injected subcutaneously (30 mg/kg body weight) in the shaved dorsal area with DHT solution (1.5 mg of DHT mixed within 200 μl of olive oil), and then the mice were injected with DHT twice per week during the course of the study. After the first DHT injection, 350 mg vehicle gel or gel containing 25 μM PEDF peptide (29-mer, 24-mer, 20-mer, or 18-mer) was topically applied to the back skin of mice once per day for 14 days. Changes in hair coat were recorded by photographing with a digital camera (FIG. 7), and the percentage of the shaved area that became dark (re-grown hair) was measured. The scores of hair regrowth after DHT injection was evaluated using the following scale: 0, 0% (no hair growth); 1, <20%; 2, 20-39%; 3, 40-59%; 4, 60-79%; 5, 80-100%. Numbers of hair bulbs per unit length (1 mm) of deep subcutis were counted as described above.

[2] = test system: male mouse vibrissal hair follicles; assay: Organ culture of mouse vibrissal hair follicles challenged with DHT (TUNEL, BrdU, histology); assay type: cell-based; details: for BrdU Labeling Index (%) / TUNNEL Labeling Index (%): peptide for 16 hours, then 100 nM DHT for further 48 hours, hair matrix keratinocytes; for TUNEL-positive keratinocytes versus vehicle or 18-mer (in words): vibrissae with 100 nM DHT
Experimental: (§3) The vibrissae follicle cryosections were washed three times in PBS. Formalin-fixed, paraffin-embedded skin specimens were deparaffinized in xylene and rehydrated in a graded series of ethanol. Sections were then stained with TdT-mediated dUTP nick-end labeling (TUNEL)-based kit (Roche Molecular Biochemicals, Indianapolis, Ind.) following the manufacturer's instructions. The cell number was monitored by counterstaining with Hoechst 33258 (blue). The nuclei were calculated in ten randomly selected fields of the three different chambers by a Zeiss epifluorescence microscope (400×, 10 fields/sample). Pictures were recorded on Zeiss software.
(§4) After fixing with 4% paraformaldehyde, cells were exposed to cold methanol for 2 minutes, and then treated with 1 N HCl at room temperature for 1 hour before performing immunofluorescence. BrdU-labeled DNA was detected by polyclonal anti-BrdU antibody and rhodamine-conjugated donkey anti-rabbit IgG.
(§5) For animal study, BrdU was reconstituted in DMSO as stock (80 mM). 10 μl of BrdU mixed with 90 μl of PBS was intraperitoneally injected into mouse at 16 hours prior to euthanasia. Formalin-fixed, paraffin-embedded skin specimens were deparaffinized in xylene and rehydrated in a graded series of ethanol before performing immunohistochemistry. The vibrissae follicle cryosections were washed three times in PBS and then exposed to 1 N HCl at room temperature for 1 hour for subsequent immunohistochemistry.
Mouse vibrissae follicles were cultured as follows. Briefly, whisker pads were cut off from the face of mouse and transferred to a Petri dish containing PBS and 1% antibiotic mixture. Each vibrissae follicle that was in anagen was isolated from the whisker pads and cultured in DMEM supplemented with insulin (10 μg/ml), hydrocortisone (10 ng/ml, Sigma-Aldrich), 1% penicillin/streptomycin antibiotic mixture and L-glutamine (2 mM), using 24-well culture plates (3 vibrissae follicles per well) and incubated at 37° C., in 5% CO2. Ten to fifteen HFs were studied in each experimental group, and were repeated three times. DHT and PEDF peptide dissolved in DMSO were added to the HF culture supplemented with insulin and hydrocortisone (the final concentration of DMSO was less than 0.05%).
Each PEDF peptide (29-mer, 24-mer, 20-mer, or Mo 20-mer) was added to organ culture of male mouse vibrissal hair follicles (HFs) for 16 hours, and then 100 nM DHT was added for further 48 hours.
Immunodetections of TUNEL- and BrdU-positive cells in cryosections were used for assessing apoptosis and proliferation activity in the HF epithelium, respectively. The labeling index (%) of TUNEL- and BrdU-positive cells was computed as the number of labeled cells divided by the total number of cells with nuclei.

[3] = test system: male C57BL/6 mice; assay: DHT-induced catagen development in depilated mice, topical peptide gel (histomorphometry, TUNEL, BrdU); assay type: in vivo, mouse; details: day-15 post-depilation; for hair cycle phase of hair follicles (histology, in words): 4 days after the DHT injection; for BrdU Labeling Index (%) in HB: hair bulb; for Phase (%) Anagen-Catagen I / Phase (%) Catagen II-III / Phase (%) Catagen IV-V / Phase (%) Catagen VI-VIII: percentage of hair follicles
Experimental: as §1, §2
The murine back skin was harvested parallel to the vertebral line to obtain longitudinal sections through the hair follicles. Dorsal skin was fixed in 4% paraformaldehyde and embedded in paraffin blocks to obtain longitudinal section. Tissues were sliced into 5 μm sections. Before use, fixed samples were de-paraffinized in xylene and rehydrated in a graded series of ethanol. General histology was performed using H&E dye. Digital photomicrographs (Zeiss epifluorescence microscope; Jena, Germany) were taken from representative areas at a fixed magnification of 100×.
For analysis of HF morphogenesis, animals were euthanized at day 15 post-depilation. The percentage of hair follicles in different stages of morphogenesis was assessed on the accepted basis of murine HF morphological criteria as described by Müuller-Röver et al. (Journal of Investigative Dermatology (2001) 117, 3-15). At least 24 longitudinally cut HF sections obtained from six to ten DHT-treated animals, were analyzed.
as §3, §5
For in vivo analysis, a 5α-dihydrotestosterone (DHT) animal model was employed. Six-week-old male C57BL/6 mice (weighing 15-20 g) in the telogen stage of the hair cycle were depilated using a melted wax/rosin mixture (1:1) under general anesthesia, and the anagen stage was induced. DHT was dissolved in DMSO to give a 50 mg/ml stock solution. On day-11 post-depilation, mice (six to ten mice per experimental condition) were injected subcutaneously in the shaved dorsal area with DHT solution (30 mg/kg body weight; 1.5 mg of DHT mixed within 200 μl of olive oil per mouse). After the DHT injection, 350 mg vehicle gel or gel containing 25 μM of PEDF peptide (29-mer, 24-mer, 20-mer, or 18-mer) was topically applied to the back skin of mice once per day for 3 days. […]

[4] = test system: human epidermal keratinocytes (HaCaT); assay: BrdU incorporation in HaCaT keratinocytes in response to TGF-β1 and PEDF-derived peptide; assay type: cell-based
Experimental: as §4
An immortalized human keratinocyte cell line (HaCaT) was cultured at 37° C. in 10% FBS-DMEM. Treatments with PEDF peptide and recombinant human TGFβ1 (R&D Systems) were performed on cells seeded in 5% FBS-DMEM.
It is known that DHT would induce the expression of transforming growth factor-β1 (TGF-β1) in dermal papilla cells (DPCs), and TGF-β1 is a catagen inducer that suppresses hair growth and follicular keratinocyte growth in subjects with androgenic alopecia. To further confirm that PEDF-derived peptide is able to protect keratinocytes from DHT-mediated growth suppression, the cell division of human epidermal keratinocytes (HaCaT) in response to TGF-β1 and PEDF-derived peptide were assessed by BrdU incorporation. The labeling index (%) of BrdU-positive cells was computed as the number of labeled cells divided by the total number of cells with nuclei.
However, in the TGF-β1+20-mer treatment group, TGF-β1 was unable to suppress the proliferative activity of HaCaT, when cells were pretreated with 20-mer for 16 hours.

[5] = DHT 30 mg/kg s.c., gel 25 μM once per day for 3 days

Row | Substance | Numbers of Hair Bulbs/mm deep subcutis [1] | hair regrowth after depilation (FIG. 7, in words) [1] | Hair Growth Score [1] | BrdU Labeling Index (%) [2] | TUNNEL Labeling Index (%) [2] | hair cycle phase of hair follicles (histology, in words) [3] | TUNNEL-positive cell/HF in HM and ORS [3, 5] | BrdU Labeling Index (%) in HB [3, 5] | Phase (%) Anagen-Catagen I [3, 5] | Phase (%) Catagen II-III [3, 5] | Phase (%) Catagen IV-V [3, 5] | Phase (%) Catagen VI-VIII [3, 5] | TUNEL-positive keratinocytes versus vehicle or 18-mer (in words) [2] | BrdU Labeling Index (%) [4] | BrdU Labeling Index (%) ([4]; TGF-β1 + 20-mer: pretreated with 20-mer for 16 hours, then TGF-β1 4 ng/ml, 24 hours) | increase in total number of hair bulbs versus vehicle or 18-mer [1] | hair matrix histology (H&E, FIG. 5) ([2]; peptide pretreatment, then 100 nM DHT)
1 | EQRTESIIHRALYYDLIS [18-mer, 18-mer peptide without the SLGA residues] | 4.8 ± 0.86 /mm | remarkable retardation of hair regrowth | 1.88 ± 0.40 | 8.4 ± 1.21% | 26.2 ± 4.21% | entered catagen; also recorded: in the middle and late catagen phase | 7.6 ± 1.5 cell/HF | 25.6 ± 2.52% | 9.7 ± 1.8% | 13.85 ± 1.75% | 53.05 ± 0.85% | 23.4 ± 4.4% | – | – | – | – | –
2 | SLGAEHRTESVIHRALYYDL [Mo 20-mer, synthetic peptide derived from mouse PEDF] | – | – | – | 24.6 ± 2.56 % | 7.3 ± 1.75 % | – | – | – | – | – | – | – | much less TUNEL-positive keratinocytes | – | – | – | –
3 | SLGAEQRTESIIHRALYYDL [20-mer, corresponds to residues 93-112 of human PEDF] | 6.8 ± 1.24 /mm | amelioration of the retardation of hair regrowth | 4.25 ± 0.25 | 23.6 ± 4.56 % | 6.8 ± 1.68 % | mostly in the anagen phase; also recorded: significantly higher percentage of hair follicles was found in the anagen phase, and the early catagen phase | – | 45.2 ± 2.47 % | 39.0 ± 2.8 % | 33.95 ± 1.25% | 23.6 ± 1.8% | 3.45 ± 0.25 % | much less TUNEL-positive keratinocytes | 23.3 ± 2.46% | 32.3 ± 3.70 % | 1.6 fold | regularly aligned keratinocytes and much less abnormal melanin particles
4 | SLGAEQRTESIIHRALYYDLISSP [24-mer, corresponds to residues 93-116 of human PEDF] | 7.2 ± 1.07 /mm | amelioration of the retardation of hair regrowth | 4.13 ± 0.40 | 22.0 ± 3.69 % | 6.5 ± 2.43 % | significantly higher percentage of hair follicles was found in the anagen phase, and the early catagen phase | – | 46.9 ± 2.57 % | – | – | – | – | much less TUNEL-positive keratinocytes | – | – | 1.6 fold | –
5 | SLGAEQRTESIIHRALYYDLISSPDIHGT [29-mer, corresponds to residues 93-121 of human PEDF] | 7.4 ± 1.03 /mm | amelioration of the retardation of hair regrowth | 3.75 ± 0.37 | 22.6 ± 2.42 % | 5.8 ± 2.12 % | mostly in the anagen phase; also recorded: significantly higher percentage of hair follicles was found in the anagen phase, and the early catagen phase | – | 44.89 ± 2.95 % | 39.85 ± 1.35 % | 37.8 ± 1.3% | 19.15 ± 2.05% | 3.2 ± 0.6 % | much less TUNEL-positive keratinocytes | – | – | 1.6 fold | –
6 | transforming growth factor-β1 [TGF-β1, reference compound] | – | – | – | – | – | – | – | – | – | – | – | – | – | 9.9 ± 2.23 % | – | – | –

Reference: patent US9938328B2, “Use of PEDF-derived polypeptides for treating alopecia and/or hair depigmentation” (MacKay Memorial Hospital, priority 2012, dated 2018)
